Experimental data: patent US20120239131A1, “METHODS AND APPARATUS FOR TREATMENT OF ANEURYSMAL TISSUE” (Medtronic Vascular, Inc., priority 2011, published 2012)

How the values were obtained:
Type in all cases: in vivo, ApoE−/− mice
aneurysm = assay: Aneurysm incidence over time, ApoE−/−+Ang II AAA model; conditions: aneurysm = dissection or more than 50% increase in diameter, versus doxycycline and saline control
Method: (§1) ApoE−/− mice used in this study were divided into different pretreatment groups: 1) Fluvastatin-MF; 2) Doxycycline-MD; 3) Irbesartan-MI; 4) Telmisartan-MT; 5) Control (water) and fed medicated chow or medicated drinking water 1 week prior to pump implantation. AngII (1000 ng·kg^−1 of body weight·min^−1) was infused subcutaneously via Alzet mini-osmotic pumps for 28 days. All mice were maintained on the medicated chow (MI & MT) or medicated drinking water (MF & MD) treatments which were delivered daily for a total of 28 days following pump implantation.
(§2) In order to determine the effect of the various treatments on the progressive enlargement of the experimental AAAs the mice were followed with high frequency trans-abdominal ultrasound. Maximum aortic diameter was measured and recorded prior to pump implantation and then at 3, 7, 14, 21, and 28 days. All mice were sacrificed 28 days after pump implantation. Aortae were harvested and subjected to either histological analysis (Elastic Masson trichome, MAC2, CD31 and TUNEL staining) and analysis of mural gene expression. Plasma drug concentrations of experimental compounds were quantified on the day of sacrifice using high performance liquid chromatography (HPLC).
Aneurysm was defined as either the presence of dissection or more than 50% increase in diameter.

NFKb1 = assay: Aortic mural gene expression, RT-PCR (TLDA); conditions: fold change over ApoE−/− control; aorta, 28 days Ang II infusion
Method: Total RNA was extracted from homogenized aortas using the Qiazol lysis reagent and RNeasy Lipid Tissue Mini kit. DNAse treatment was included in the procedure. RNA concentration was determined utilizing the Quant iT RNA assay kit. Complimentary deoxyribonucleic acid (cDNA) was synthesized from 1 μg RNA using High reverse cDNA transcription kit. Briefly the reaction tubes containing RNA, reverse transcriptase, buffer, RNAse inhibitor, and nuclease free water were incubated at 25° C. for 10 minutes to allow annealing. […] The cDNA samples were cooled at 4° C. and stored at −80° C. until further use.
Real time PCR was performed using a 384-well Taqman low density array (TLDA) card. Each sample specific PCR mix contained 50 ng of total RNA converted to cDNA. The PCR reaction for Taqman assays contained 50 μl Master Mix (Taqman Universal PCR Master Mix,) and 50 ul of cDNA and RNAase free water. Assays were performed to include appropriate controls (no template control). The RT-PCR protocol included an initial step of 50° C. […] Fluorescence data was collected at 60° C. Fluorescence was quantified with ABI PRISM 7900HT Sequence Detection System. To verify amplification of a specific target cDNA, data generated was analyzed using SDS 2.2.3 software (Sequence Detection System Software, Applied Biosystems). […] For relative quantification (RQ), pooled ApoE−/− control was used as the calibrator (with expression equal to 1).

MMP-8 = assay: Aortic mural gene expression, RT-PCR (TLDA); conditions: fold change over ApoE−/− control; aorta, 28 days Ang II infusion
Method: as §1, §2
(§3) Total RNA was extracted from homogenized aortas using the Qiazol lysis reagent and RNeasy Lipid Tissue Mini kit. DNAse treatment was included in the procedure. RNA concentration was determined utilizing the Quant iT RNA assay kit. Complimentary deoxyribonucleic acid (cDNA) was synthesized from 1 μg RNA using High reverse cDNA transcription kit. Briefly the reaction tubes containing RNA, reverse transcriptase, buffer, RNAse inhibitor, and nuclease free water were incubated at 25° C. for 10 minutes to allow annealing. Reverse transcription was performed at 37° C. for 120 min, followed by a 5 sec incubation at 85° C. to inactivate the reverse transcriptase enzyme. The cDNA samples were cooled at 4° C. and stored at −80° C. until further use.
(§4) Real time PCR was performed using a 384-well Taqman low density array (TLDA) card. Each sample specific PCR mix contained 50 ng of total RNA converted to cDNA. The PCR reaction for Taqman assays contained 50 μl Master Mix (Taqman Universal PCR Master Mix,) and 50 ul of cDNA and RNAase free water. Assays were performed to include appropriate controls (no template control). The RT-PCR protocol included an initial step of 50° C. (2 minutes) […], denaturation by a hot start at 95° C. for 10 min, followed by 40 cycles of a 2 step program (denaturation at 95° C. for 15 secs for primer annealing/extension at 60° C. for 1 min). Fluorescence data was collected at 60° C. Fluorescence was quantified with ABI PRISM 7900HT Sequence Detection System. To verify amplification of a specific target cDNA, data generated was analyzed using SDS 2.2.3 software (Sequence Detection System Software, Applied Biosystems). For all amplification plots, the baseline data were set with the automatic CT function available with SDS 2.2.3 calculating the optimal baseline range and threshold value by using the AutoCT algorithm. According to the manufacturer's instruction, a CT value of ≧39 corresponds to nonspecific amplification marking the limits of detection. For endogenous control GAPDH was normalized to B2M. For relative quantification (RQ), pooled ApoE−/− control was used as the calibrator (with expression equal to 1).

Rac2 = assay: Aortic mural gene expression, RT-PCR (TLDA); conditions: fold change over ApoE−/− control; aorta, 28 days Ang II infusion
Method: as §1, §2, §3, §4

Runx3 = assay: Aortic mural gene expression, RT-PCR (TLDA); conditions: fold change over ApoE−/− control; aorta, 28 days Ang II infusion
Method: as §1, §2, §3, §4

ITGB2 = assay: Aortic mural gene expression, RT-PCR (TLDA); conditions: fold change over ApoE−/− control; aorta, 28 days Ang II infusion
Method: as §1, §2, §3, §4

Cathepsin S = assay: Aortic mural gene expression, RT-PCR (TLDA); conditions: fold change over ApoE−/− control; aorta, 28 days Ang II infusion
Method: as §1, §2, §3, §4

Vav1 = assay: Aortic mural gene expression, RT-PCR (TLDA); conditions: fold change over ApoE−/− control; aorta, 28 days Ang II infusion
Method: as §1, §2, §3, §4

CCL2 = assay: Aortic mural gene expression, RT-PCR (TLDA); conditions: fold change over ApoE−/− control; aorta, 28 days Ang II infusion
Method: as §1, §2, §3, §4

MAPK8 = assay: Aortic mural gene expression, RT-PCR (TLDA); conditions: fold change over ApoE−/− control; aorta, 28 days Ang II infusion
Method: as §1, §2, §3, §4

Osteopontin = assay: Aortic mural gene expression, RT-PCR (TLDA); conditions: fold change over ApoE−/− control; aorta, 28 days Ang II infusion
Method: as §1, §2, §3, §4

LOX = assay: Aortic mural gene expression, RT-PCR (TLDA); conditions: fold change over ApoE−/− control; aorta, 28 days Ang II infusion
Method: as §1, §2, §3, §4

MMP-12 = assay: Aortic mural gene expression, RT-PCR (TLDA); conditions: fold change over ApoE−/− control; aorta, 28 days Ang II infusion
Method: as §1, §2, §3, §4

HMOX 1 = assay: Aortic mural gene expression, RT-PCR (TLDA); conditions: fold change over ApoE−/− control; aorta, 28 days Ang II infusion
Method: as §1, §2, §3, §4

Cybb = assay: Aortic mural gene expression, RT-PCR (TLDA); conditions: fold change over ApoE−/− control; aorta, 28 days Ang II infusion
Method: as §1, §2, §3, §4

AAA = assay: Aortic diameter by ultrasonography, ApoE−/−+Ang II AAA model; conditions: pretreatment 1 week before Ang II infusion, followed to 28 days, versus control and doxycycline
From the text: The ApoE^−/−+Ang II AAA model is well established and supported by current scientific literature. Mice genetically predisposed to hypercholesterolemia develop aneurysms when treated with angiotensin II. Aneurysms generally develop within the first week after pump implantation and share many important pathologic characteristics with human AAA disease. ApoE−/− mice used in this study were divided into different pretreatment groups: 1) Fluvastatin-MF; 2) Doxycycline-MD; 3) Irbesartan-MI; 4) Telmisartan-MT; 5) Control (water) and fed medicated chow or medicated drinking water 1 week prior to pump implantation. AngII (1000 ng·kg^−1 of body weight·min^−1) was infused subcutaneously via Alzet mini-osmotic pumps for 28 days. All mice were maintained on the medicated chow (MI & MT) or medicated drinking water (MF & MD) treatments which were delivered daily for a total of 28 days following pump implantation. In order to determine the effect of the various treatments on the progressive enlargement of the experimental AAAs the mice were followed with high frequency trans-abdominal ultrasound. Maximum aortic diameter was measured and recorded prior to pump implantation and then at 3, 7, 14, 21, and 28 days. All mice were sacrificed 28 days after pump implantation. Aortae were harvested and subjected to either histological analysis (Elastic Masson trichome, MAC2, CD31 and TUNEL staining) and analysis of mural gene expression. Plasma drug concentrations of experimental compounds were quantified on the day of sacrifice using high performance liquid chromatography (HPLC).

Compound	Inhibition of aneurysm development (aneurysm incidence) (aneurysm)	NFKb1 expression (NFKb1)	MMP-8 expression (MMP-8)	Rac2 expression (Rac2)	Runx3 expression (Runx3)	ITGB2 expression (ITGB2)	Cathepsin S expression (Cathepsin S)	Vav1 expression (Vav1)	CCL2 expression (CCL2)	MAPK8 expression (MAPK8)	Osteopontin expression (Osteopontin)	LOX expression (LOX)	MMP-12 expression (MMP-12)	HMOX 1 expression (HMOX 1)	Cybb expression (Cybb)	Inhibition of aneurysm development/growth (aortic diameter) (AAA)	Inhibition of aneurysm development (aneurysm incidence) (aneurysm; listed as telmisartan)	Inhibition of aneurysm development/growth (aortic diameter) (AAA; listed as telmisartan)
CC(C)n1c(/C=C/C(O)CC(O)CC(=O)O)c(-c2ccc(F)cc2)c2ccccc21 (stereo not shown) [Fluvastatin]	effective in inhibiting aneurysm development	− (0 to 1 = −)	++++ (>10.1 = ++++)	+ (1.1 to 1.5 = +)	++ (1.51 to 3 = ++)	++ (1.51 to 3 = ++)	+++ (3.1 to 10 = +++)	++ (1.51 to 3 = ++)	++ (1.51 to 3 = ++)	− (0 to 1 = −)	++++ (>10.1 = ++++)	− (0 to 1 = −)	+++ (3.1 to 10 = +++)	+++ (3.1 to 10 = +++)	++ (1.51 to 3 = ++)	relative good inhibition of AAA	–	–
CCCc1nc2c(C)cc(-c3nc4ccccc4n3C)cc2n1Cc1ccc(-c2ccccc2C(=O)O)cc1 [Telmisartan]	inhibited aneurysm development well	− (0 to 1 = −)	− (0 to 1 = −)	− (0 to 1 = −)	− (0 to 1 = −)	− (0 to 1 = −)	− (0 to 1 = −)	− (0 to 1 = −)	− (0 to 1 = −)	++ (1.51 to 3 = ++)	− (0 to 1 = −)	− (0 to 1 = −)	− (0 to 1 = −)	− (0 to 1 = −)	− (0 to 1 = −)	effective in inhibiting aneurysm development	effective in inhibiting aneurysm development	effective in inhibiting/preventing aneurysm development
